Test results taken from ChEMBL document CHEMBL5046256, “The discovery of potent small molecule cyclic urea activators of STING” (Eur J Med Chem, 2022).
Calls of active or inactive are those of the source. The calls are words filed in the database; no cut-off is given here.

What was measured:
[1] = test system: HEK-293T; test: Agonist activity against human STING R232H variant transfected in HEK-293T cells co-expressing ISRE.ISG54 at 0.5 uM by luciferase reporter gene assay relative to control; format: cell-based
[2] = test system: HEK-293T; test: Agonist activity against human STING R232H variant transfected in HEK-293T cells co-expressing ISRE.ISG54 at 1 uM by luciferase reporter gene assay relative to control; format: cell-based
[3] = test system: HEK-293T; test: Agonist activity against human STING R232H variant transfected in HEK-293T cells co-expressing ISRE.ISG54 at 0.2 uM by luciferase reporter gene assay relative to control; format: cell-based; conditions: filed as agonist
[4] = AUC in Balb/c mouse at 25 mg/kg, po measured by LC-MS/MS analysis; format: ADME, organism-based; parameters: dose 25 mg/kg; conditions: in vivo
[5] = Half life in Balb/c mouse at 25 mg/kg, iv measured by LC-MS/MS analysis; format: ADME, organism-based; conditions: in vivo
[6] = biological target: T1, Stimulator of interferon genes protein (Homo sapiens, UniProt Q86WV6); test: Agonist activity against human STING AQ variant transfected in HEK-293T cells co-expressing ISRE.ISG54 incubated for 18 hrs by luciferase reporter gene assay; format: cell-based
T1 sequence (Q86WV6 whole entry, looked up, stated change not applied): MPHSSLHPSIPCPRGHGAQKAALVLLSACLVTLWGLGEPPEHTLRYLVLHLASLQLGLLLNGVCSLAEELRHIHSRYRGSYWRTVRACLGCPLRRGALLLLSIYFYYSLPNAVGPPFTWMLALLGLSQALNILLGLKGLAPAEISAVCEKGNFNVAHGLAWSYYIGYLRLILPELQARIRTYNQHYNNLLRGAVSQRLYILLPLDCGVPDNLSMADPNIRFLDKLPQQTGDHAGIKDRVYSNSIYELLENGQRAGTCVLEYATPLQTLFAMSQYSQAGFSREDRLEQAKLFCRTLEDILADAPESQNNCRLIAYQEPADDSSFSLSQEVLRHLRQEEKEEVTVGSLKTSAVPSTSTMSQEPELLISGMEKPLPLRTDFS

[7] = Cmax/C0 in monkey at 2.5 mg/kg, iv measured by LC-MS/MS analysis; format: ADME, organism-based, Macaca mulatta; parameters: route intravenous, dose 2.5 mg/kg; conditions: rhesus monkey, in vivo
[8] = Agonist activity against human STING R232H variant transfected in HEK-293T cells co-expressing ISRE.ISG54 by luciferase reporter gene assay; format: cell-based; conditions: Homo sapiens, HEK-293T
[9] = Half life in monkey at 2.5 mg/kg, iv measured by LC-MS/MS analysis; format: ADME, organism-based, Macaca mulatta; conditions: rhesus monkey, in vivo
[10] = Cmax/C0 in Balb/c mouse at 25 mg/kg, iv measured by LC-MS/MS analysis; format: ADME, organism-based; parameters: route intravenous, dose 25 mg/kg; conditions: in vivo
[11] = test system: PBMC; test: Effects of compound on IFN-beta production in cynomolgus monkey PBMC cells assessed as increase in […] level at 10 uM and measured upto 24 hrs by ELISA; format: functional, cell-based; conditions: Macaca fascicularis
[12] = Oral bioavailability in Balb/c mouse at 25 mg/kg measured by LC-MS/MS analysis; format: ADME, organism-based; conditions: in vivo
[13] = Cmax/C0 in Balb/c mouse at 25 mg/kg, po measured by LC-MS/MS analysis; format: ADME, organism-based; parameters: route oral, dose 25 mg/kg; conditions: in vivo
[14] = biological target: T1, Stimulator of interferon genes protein; test: Agonist activity against human STING HAQ variant expressed in HEK-293T cells co-expressing ISRE.ISG54 incubated for 18 hrs by luciferase reporter gene assay; format: cell-based
[15] = test system: PBMC; test: Effect of compound on STING phosphorylation in cynomolgus monkey PBMC cells at 10 uM for 2 hrs by immunoblotting; format: functional, cell-based; conditions: Macaca fascicularis
[16] = biological target: T1, Stimulator of interferon genes protein; test: Agonist activity against human STING H232 variant transfected in HEK-293T cells co-expressing ISRE.ISG54 incubated for 18 hrs by luciferase reporter gene assay; format: cell-based
[17] = test system: PBMC; test: Effects of compound on IFN-alpha production in cynomolgus monkey PBMC cells assessed as increase in […] level at 10 uM and measured upto 24 hrs by ELISA; format: functional, cell-based; conditions: Macaca fascicularis
[18] = biological target: T1, Stimulator of interferon genes protein; test: Agonist activity against human STING Q variant expressed in HEK293T cells co-expressing ISRE.ISG54 incubated for 18 hrs by luciferase reporter gene assay; format: cell-based; conditions: hek-293t
[19] = test system: PBMC; test: Effects of compound on IL-6 production in cynomolgus monkey PBMC cells assessed as increase in IL-6 level at 10 uM and measured upto 24 hrs by ELISA; format: functional, cell-based; conditions: Macaca fascicularis
[20] = AUC in Balb/c mouse at 25 mg/kg, iv measured by LC-MS/MS analysis; format: ADME, organism-based; parameters: dose 25 mg/kg; conditions: in vivo
[21] = test system: PBMC; test: Effect of compound on IRF3 phosphorylation in cynomolgus monkey PBMC cells at 10 uM for 2 hrs by immunoblotting; format: functional, cell-based; conditions: Macaca fascicularis
[22] = biological target: T1, Stimulator of interferon genes protein; test: Agonist activity against human STING HAQ variant expressed in THP-1 cells co-expressing ISRE.ISG54 incubated for 18 hrs by luciferase reporter gene assay; format: cell-based
[23] = Half life in Balb/c mouse at 25 mg/kg, po measured by LC-MS/MS analysis; format: ADME, organism-based; conditions: in vivo
[24] = AUC in monkey at 2.5 mg/kg, iv measured by LC-MS/MS analysis; format: ADME, organism-based, Macaca mulatta; parameters: dose 2.5 mg/kg; conditions: rhesus monkey, in vivo
[25] = Agonist activity against cynomolgus monkey STING expressed in HEK-293T cells co-expressing co-expressing ISRE.ISG54 by luciferase reporter gene assay; format: cell-based; conditions: Macaca fascicularis
[26] = test system: Stimulator of interferon genes protein (Homo sapiens), Q86WV6 [UNDEFINED MUTATION]; test: Binding affinity to human STING R232 variant expressed in HEK-293T cells assessed as increase in thermal stability measured between 51 and 56 deg C at 10 uM for 2 hrs by cellular thermal shift assay; format: cell-based; conditions: filed as agonist
Stimulator of interferon genes protein (Homo sapiens), Q86WV6 [UNDEFINED MUTATION], sequence (Q86WV6 whole entry, looked up, change not shown): as the sequence (Q86WV6 whole entry, looked up, stated change not applied) above

Compound Cc1cc(CN2C(=O)N(C)C(C)c3ccc(C(=O)NCc4c(F)cc(F)cc4F)cc32)on1 (configuration not stated) has an Activity [1] of 6%.

With Cc1cc(CN2C(=O)N(C)C(C)c3ccc(C(=O)NCc4c(F)cc(F)cc4F)cc32)c(F)cn1 (configuration not stated) the Activity ([1]; filed as agonist) was 64%.

Work on Cc1cc(CN2C(=O)N(C)Cc3ccc(C(=O)NCc4c(F)cc(F)cc4F)cc32)on1 yielded an Activity [2] of 12%.

For CC1c2ccc(C(=O)NCc3c(F)cc(F)cc3F)cc2N(Cc2cc(F)cc(F)c2)C(=O)N1C (racemic), the Activity [3] was 81%.

For CC1c2ccc(C(=O)NCc3c(F)cc(F)cc3F)cc2N(Cc2c(F)cccc2F)C(=O)N1C (racemic), the Activity ([2]; filed as agonist) was 64%.

In the case of C[C@H]1c2ccc(C(=O)NCc3c(F)cc(F)cc3F)cc2N(Cc2c(F)cccc2Cl)C(=O)N1C, the AUC [4] is reported as 4850 ng·h/mL, the half-life [5] is reported as 1.4 h and the EC50 [6] is reported as 83 nM. For the same compound, the Cmax [7] was 5220 ng/mL, the EC50 [8] was 18 nM and the half-life [9] was 7.1 h. For the same compound, the Cmax [10] was 20100 ng/mL, the Activity [11] was “Active” and the bioavailability [12] was 44%. The Cmax [13] was 2480 ng/mL, the EC50 [14] was 26 nM and the Activity [15] was “Active”. For the same compound, the EC50 [16] was 59 nM, the Activity [17] was “Active” and the EC50 [18] was 90 nM. The Activity [19] was “Active”, the AUC [20] was 10900 ng·h/mL and the Activity [21] was “Active”. The EC50 [22] was 341 nM, the half-life [23] was 1.6 h and the AUC [24] was 8050 ng·h/mL. The EC50 [25] was 99 nM and the Activity [26] was “Active”.

Compound CC1c2ccc(C(=O)NCc3c(F)cc(F)cc3F)cc2N(Cc2ccccc2F)C(=O)N1C (configuration not stated) has an Activity ([1]; filed as agonist) of 54%.

CC1c2ccc(C(=O)NCc3c(F)cc(F)cc3F)cc2N(Cc2ccccc2)C(=O)N1C (racemic) gave an Activity ([1]; filed as agonist) of 74% and an Activity ([2]; filed as agonist) of 73%.

Cc1cc(CN2C(=O)N(C)C(C)c3ccc(C(=O)NCc4c(F)cc(F)cc4F)cc32)no1 (configuration not stated) showed an Activity [1] of 6%.
